This is an account of results in patent US6939874B2, “Substituted pyrimidinyl derivatives and methods of use” (Amgen Inc., priority 2001, dated 2005).

This assay has as its system 3T3. As to the kind of experiment: IGF-1-induced DNA synthesis (3H-thymidine incorporation). Type of assay: cell-based. As to conditions: NIH3T3, activated with 50 ng/mL IGF-1, read-out: inhibited 3T3 proliferation. As to the method: IGF-1-Induced DNA Synthesis.
Human tumor cell lines or a rat fibroblast cell line are plated out in flat-well plates in complete medium and allowed to adhere overnight. The cells are then starved in medium containing 0.1% bovine serum albumin (BSA) overnight, pre-incubated for 1 h with or without dilutions of compound, then activated overnight with 50 ng/mL insulin-like growth factor (IGF-1). Proliferation is determined by the level of ^3H-thymidine incorporation into DNA.
(In general: Dividing cells build labelled thymidine or BrdU into new DNA.)
As to `COc1cc(Nc2nccc(Nc3cnc4ccccc4c3)n2)cc(OC)c1OC` [Example 1, N^4-Quinolin-3-yl-N^2-(3,4,5-trimethoxyphenyl)pyrimidine-2,4-diamine], the IC50 was less than 150 nM.
The value for `COc1cc(Nc2nccc(Nc3ccc4ncccc4c3)n2)cc(OC)c1OC` [Example 14, N^4-quinolin-6-yl-N^2-(3,4,5-trimethoxyphenyl)-pyrimidine-2,4-diamine] was less than 150 nM; that for `COc1cc(C)c(Nc2nccc(Nc3cnc4ccccc4c3)n2)cc1OC` [Example 20, N^2-(3,4-dimethoxy-6-methylphenyl)-N^4-quinolin-3-yl-pyrimidine-2,4-diamine] was less than 150 nM; that for `c1ccc2ncc(Nc3ccnc(Nc4ccc(N5CCOCC5)cc4)n3)cc2c1` [Example 48, N^2-(4-(4-morpholinyl)phenyl)-N -(3-quinolinyl)-2,4-pyrimidinediamine] was less than 150 nM.
With `c1ccc2ncc(Nc3ccnc(Nc4ccc(N5CCOCC5)nc4)n3)cc2c1` [Example 49, N^2-(6-(4-morpholinyl)-3-pyridinyl)-N^4-(3-quinolinyl)-2,4-pyrimidinediamine], the IC50 was less than 150 nM.
The value for `CC(=O)c1ccc(Nc2nccc(Nc3cnc4ccccc4c3)n2)cc1` [Example 59, 1-(4-((4-(3-quinalinylamino)-2-pyrimidinyl)amino)phenyl)ethanone] was less than 150 nM; that for `CN1CCN(c2ccc(Nc3nccc(Nc4cnc5ccccc5c4)n3)cc2)CC1` [Example 84, N^2-(4-(4-methyl-1-piperazinyl)phenyl)-N^4-(3-qulnolinyl)-2,4-pyrimidinediamine] was less than 150 nM; that for `COc1cc(Nc2nccc(Nc3cnc4ccccc4c3)n2)ccc1C(N)=O` [Example 94, 2-(Methoxy)-4-((4-(3-quinolinylamino)-2-pyrimidinyl)amino)benzamide] was less than 150 nM.
The figure for `c1ccc2ncc(Nc3ccnc(Nc4ccc(OCCCN5CCCCC5)cc4)n3)cc2c1` [Example 98, N^2-[4-(3-Piperidin-1-yl-propoxy)-phenyl]-N^4-4-quinolin-3-yl-pyrimidine-2,4-diamine] is less than 150 nM; for `c1ccc2ncc(Nc3ccnc(Nc4ccc(OCCN5CCCCC5)cc4)n3)cc2c1` [Example 99, N^2-(4-((2-(1-Piperidinyl)ethyl)oxy)phenyl)-N^4-(3-quinolinyl)-2,4-pyrimidinediamine] it is less than 150 nM.
The value for `COc1ccc(Nc2nccc(Nc3cnc4ccccc4c3)n2)cc1CCN(C)C` [Example 100] was less than 150 nM.
Consider `c1cc(Nc2nccc(Nc3cnc4ccccc4c3)n2)cc(-c2cnco2)c1` [Example 104, N^2-(3-(1,3-oxazol-5-yl)phenyl)-N^4-(3-quinolinyl)-2,4-pyrimidinediamine], for which the IC50 is less than 150 nM.
The value for `c1cc(Nc2nccc(Nc3ccc4ncccc4c3)n2)cc(-c2cnco2)c1` [Example 105, N^2-(3-(1,3-oxazol-5-yl)phenyl)-N^4-(6-quinolinyl)-2,4-pyrimidinediamine] was less than 150 nM.
The value for `CC(=O)N1CC(C)(C)c2ccc(Nc3nccc(Nc4cnc5ccccc5c4)n3)cc21` [Example 110, N^2-(1-acetyl-3,3-dimethyl-2,3-dihydro-1H-indol-6-yl)-N^4-(3-quinolinyl)-2,4-pyrimidinediamine] was less than 150 nM; that for `COc1cc(Nc2nccc(Nc3ccc4nc(C)ccc4c3)n2)cc(OC)c1OC` [Example 118, N^4-(2-Methyl-6-quinolinyl)-N^2-(3,4,5-tris(methoxy)phenyl)-2,4-pyrimidinediamine] was less than 150 nM.
With `COc1cc(Nc2nccc(Nc3cc4ccccc4c(OC)n3)n2)cc(OC)c1OC` [Example 130, N^4-(1-Methoxy-isoquinolin-3-yl)-N^2-(3,4,5-trimethoxy-phenyl)-pyrimidine-2,4-diamine], the IC50 was less than 150 nM.
The figure for `COc1cc(Nc2nccc(Nc3cnc4ccccc4c3)n2)ccc1OCCN1CCN(c2nccc(Nc3cnc4ccccc4c3)n2)CC1` [Example 132, N^2-[3-Methoxy-4-(2-{4-[4-(quinolin-3-ylamino)-pyrimidin-2-yl]-piperazin-1-yl}-ethoxy)-phenyl]-N^4-quinolin-3-yl-pyrimidine-2,4-diamine] is less than 150 nM; for `COc1ccc2ncc(Nc3ccnc(Nc4cc(OC)c(OC)c(OC)c4)n3)cc2c1` [Example 134, N^4-(6-Methoxy-quinolin-3-yl)-N^2-(3,4,5-tris(methoxy)phenyl)-2,4-pyrimidinediamine] it is less than 150 nM; for `COc1cc(Nc2nccc(Nc3cnc4ccc(O)cc4c3)n2)cc(OC)c1OC` [Example 135, N^4-(6-Hydroxy-quinolin-3-yl)-N^2-(3,4,5-tris(methoxy)phenyl)-2,4-pyrimidinediamine] it is less than 150 nM.
The figure for `COc1ccc2ncc(Nc3ccnc(Nc4cc(OC)c(OC)cc4C)n3)cc2c1` [Example 137, N^4-(6-Methoxy-3-quinolinyl)-N^2-(2-methyl-4,5-dimethoxyphenyl)-2,4-pyrimidinediamine] is less than 150 nM; for `COc1cc(Nc2nccc(Nc3cnc4ccc(OC(F)(F)F)cc4c3)n2)cc(OC)c1OC` [Example 139, N^2-(3,4,5-Tris(methoxy)phenyl)-N^4-(6-trifluoromethoxy-3-quinolinyl)-2,4-pyrimidinediamine] it is less than 150 nM; for `COc1cc(C)c(Nc2nccc(Nc3cnc4ccc(OC(F)(F)F)cc4c3)n2)cc1OC` [Example 140, N^2-(2-Methyl-4,5-dimethoxyphenyl)-N^4-(6-trifluoromethoxy-3-quinolinyl)-2,4-pyrimidinediamine] it is less than 150 nM.
The figure for `COc1cc(Nc2nccc(Nc3cnc4ccccc4c3)n2)ccc1/C=C/C(=O)N1CCCC1` [Example 148, 3-{2-Methoxy-4-[4-(quinolin-3-ylamino)-pyrimidin-2-ylamino]-phenyl}-1-pyrrolidin-1-yl-propenone] is less than 150 nM; for `COc1cc(Nc2nccc(Nc3cnc4ccccc4c3)n2)ccc1CCC(=O)N1CCCC1` [Example 149, 3-{2-Methoxy-4-[4-(quinolin-3-ylamino)-pyrimidin-2-ylamino]-phenyl}-1-pyrrolidin-1-yl-propanone] it is less than 150 nM; for `COc1cc(Nc2nccc(Nc3cnc4ccccc4c3)n2)ccc1CCCN1CCCC1` [Example 150, N^2-[3-Methoxy-4-(3-pyrrolidin-1-yl-propyl)-phenyl]-N-4-quinolin-3-yl-pyrimidine-2,4-diamine] it is less than 150 nM.
As for `COc1cc(Nc2nccc(Nc3cnc4ccccc4c3)n2)ccc1OCCC1CCN(c2nccc(Nc3cnc4ccccc4c3)n2)CC1` [Example 151, N^2-[3-Methoxy-4-(2-{1-[4-(quinolin-3-ylamino)-pyrimidin-2-yl]-piperidin-4-yl}-ethoxy)-phenyl]-N^4-quinolin-3-yl-pyrimidine-2,4-diamine], the IC50 is less than 150 nM.
